# Data published in PubChem BioAssay (NCI).
# Values joined by “and” are separate entries in the source; they are usually repeats but may differ in a detail not shown here. Equal entries are not always repeated.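 Interpolation was linear, between the two tested concentrations surrounding the appropriate level; five concentrations were tested over 48 hours in 96-well plates. The concentration for 50% growth inhibition is given as GI50. Definition used: TGI = concentration required for complete inhibition of growth.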
# Experiments:
# Test in all cases: NCI-60 cell line screen, 48 h
# 786-0 renal = tested on: 786-0 renal
# A549 NSCLC = tested on: A549 NSCLC
# HCT-116 colon = tested on: HCT-116 colon
# HOP-92 NSCLC = tested on: HOP-92 NSCLC
# NCI-H226 lung = tested on: NCI-H226 lung
# NCI-H522 lung = tested on: NCI-H522 lung
# PC-3 prostate = tested on: PC-3 prostate
# SF-268 CNS = tested on: SF-268 CNS
# SK-MEL-2 melanoma = tested on: SK-MEL-2 melanoma
# U251 CNS = tested on: U251 CNS
Compound,GI50 (786-0 renal),TGI (786-0 renal),GI50 (A549 NSCLC),GI50 (HCT-116 colon),TGI (HCT-116 colon),GI50 (HOP-92 NSCLC),TGI (HOP-92 NSCLC),GI50 (NCI-H226 lung),TGI (NCI-H226 lung),GI50 (NCI-H522 lung),TGI (NCI-H522 lung),GI50 (PC-3 prostate),TGI (PC-3 prostate),GI50 (SF-268 CNS),TGI (SF-268 CNS),GI50 (SK-MEL-2 melanoma),TGI (SK-MEL-2 melanoma),GI50 (U251 CNS),TGI (U251 CNS),TGI (A549 NSCLC)
Oc1cccc(-c2nc(N3CCOCC3)c3oc4ncccc4c3n2)c1,0.231 µM and 0.246 µM,1.67 µM and 1.28 µM,0.317 µM and 0.225 µM,0.53 µM and 0.426 µM,> 100 µM,0.0237 µM and 0.0243 µM,0.131 µM and 0.216 µM,4.12 µM and 7.21 µM,78.6 µM and 68.3 µM,0.0654 µM and 0.0819 µM,0.666 µM and 4.67 µM,0.0505 µM and 0.0462 µM,> 100 µM,0.196 µM and 0.181 µM,> 100 µM and 19.9 µM,0.147 µM and 0.295 µM,0.641 µM and 1.92 µM,0.346 µM and 0.384 µM,> 44.5 µM and 10.9 µM,–
N=C(N)SCC(=O)O,–,> 100 µM,–,–,> 100 µM,–,> 100 µM,–,> 100 µM,–,> 100 µM,–,> 100 µM,–,> 100 µM,–,> 100 µM,–,> 100 µM,> 100 µM
O=C(Nc1nc2ccc(F)cc2s1)c1cccnc1Nc1ccc(Cl)cc1Cl,3.28 µM,12.2 µM,3.51 µM,2.07 µM,8.01 µM,1.4 µM,5.15 µM,2.72 µM,19.3 µM,2.53 µM,> 25.6 µM,2.21 µM,9.45 µM,3.34 µM,16.3 µM,3.3 µM,> 26.2 µM,2.92 µM,12 µM,16.1 µM
COc1ccc2c(c1)c(-c1cc(-c3cn(C)c4ccc(OC)cc34)[nH]n1)cn2C,> 100 µM,> 100 µM,> 100 µM,> 100 µM,> 100 µM,60.7 µM,> 100 µM,> 100 µM,> 100 µM,> 100 µM,> 100 µM,> 100 µM,> 100 µM,> 100 µM,> 100 µM,> 100 µM,> 100 µM,> 100 µM,> 100 µM,> 100 µM
CC(=O)OC1Oc2cc(C)c(C)cc2-c2oc(=O)c(-c3ccccc3)cc21 (stereo unspecified),0.429 µM,24.8 µM,0.608 µM,0.455 µM,46.9 µM,1.98 µM,61.8 µM,2.77 µM,–,0.177 µM,4.81 µM,0.435 µM,> 100 µM,0.58 µM,> 50.6 µM,0.572 µM,> 63.3 µM,0.44 µM,58.8 µM,> 53.8 µM
C#CCn1cc(C=C2C(=O)NC(=S)NC2=O)c2cc(Cl)ccc21,2.17 µM,5.04 µM,3.63 µM,1.86 µM,3.6 µM,1.92 µM,5.26 µM,2.82 µM,8.47 µM,2.12 µM,5.45 µM,2.57 µM,6.89 µM,2.12 µM,5.41 µM,2.41 µM,5.91 µM,1.87 µM,3.9 µM,16.6 µM
Cc1ccc(-c2cc(C(Cl)Cl)on2)cc1,60.3 µM,> 100 µM,65.6 µM,36.1 µM,> 100 µM,33.5 µM,> 100 µM,48.2 µM,> 100 µM,48.5 µM,> 100 µM,49.9 µM,> 100 µM,> 100 µM,> 100 µM,> 100 µM,> 100 µM,55.1 µM,> 100 µM,> 100 µM
O=C1c2c(O)ccc(O)c2C(=O)c2c(NCCNCCO)ccc(NCCNCCO)c21,–,0.13 µM and 0.299 µM and 0.584 µM,–,0.0451 µM,0.327 µM and 1.23 µM and 0.858 µM,0.0312 µM,0.773 µM and 0.425 µM and 0.0779 µM,–,0.0547 µM and 0.1 µM and 0.136 µM,0.0232 µM and 0.00969 µM and 0.0544 µM,0.101 µM and 0.0831 µM and 0.574 µM,–,1.29 µM and 1.45 µM and 1.55 µM,–,0.32 µM and 0.696 µM and 0.845 µM,–,0.657 µM and 0.6 µM and 0.926 µM,–,0.151 µM and 0.499 µM and 0.376 µM,0.418 µM and 0.627 µM
C/C(=N\O)[C@H]1CC[C@@]2(C)[C@@H]3CC[C@H]4C(C)(C)/C(=N/O)CC[C@@]45CC35CC[C@]12C (stereo partly specified),2.97 µM,6.85 µM,3.92 µM,2.45 µM,5.77 µM,2.09 µM,5.45 µM,5.03 µM,> 16.7 µM,> 16.7 µM,> 16.7 µM,2.33 µM,6.9 µM,4.16 µM,14.1 µM,13.4 µM,> 16.7 µM,3.51 µM,6.81 µM,9.59 µM
CCOc1cccc(/C=N/NC(=O)Cc2ccc(Nc3ccnc(C(F)(F)F)c3)cc2)c1O,2.85 µM,74.9 µM,4.09 µM,1.2 µM,19.3 µM,1.9 µM,9.93 µM,3.21 µM,34.9 µM,4.76 µM,33.2 µM,1.88 µM,21.6 µM,1.27 µM,32.4 µM,11.4 µM,45 µM,1.58 µM,> 100 µM,> 100 µM
COc1ccc(CNC(=O)c2ccc(-c3cc(-c4nnc(C)o4)ccc3C)cc2)cc1,> 25 µM,> 25 µM,22.8 µM,14.6 µM,> 25 µM,2.11 µM,> 25 µM,> 20.4 µM,> 25 µM,> 20.2 µM,> 25 µM,19.2 µM,> 25 µM,21 µM,> 25 µM,> 25 µM,> 25 µM,> 25 µM,> 25 µM,> 25 µM
COc1cccc(C2CC(=O)Nc3cc4c(cc32)CCC4)c1OC (stereo unspecified),4.84 µM,27.9 µM,0.859 µM,3.61 µM,16 µM,0.758 µM,7.83 µM,9.7 µM,44.2 µM,3.67 µM,18.4 µM,3.41 µM,47.3 µM,5.34 µM,27.5 µM,4.12 µM,17.3 µM,4.71 µM,19.3 µM,> 33.8 µM
Cc1nnc(N=Nc2c(O)[nH]c3ccccc23)[nH]c1=O,–,> 100 µM,–,–,> 100 µM,–,> 100 µM,–,> 100 µM,–,> 100 µM,–,> 100 µM,–,> 100 µM,–,> 100 µM,–,> 100 µM,> 100 µM
Cc1ccc(S(=O)c2ccc([N+](=O)[O-])c3nonc23)cc1 (stereo unspecified),13.2 µM,26.2 µM,18.7 µM,1.82 µM,3.39 µM,4.09 µM,17.2 µM,15.7 µM,43.2 µM,1.57 µM,2.98 µM,12.8 µM,27.1 µM,15 µM,29.9 µM,17.8 µM,35.8 µM,16 µM,35 µM,39.5 µM
NC(=O)c1c(NC(=O)c2cccc(C(F)(F)F)c2)sc2c1CCC(=O)C2,1.94 µM,> 100 µM,1.88 µM,0.249 µM,> 32.2 µM,0.985 µM,3.47 µM,5.37 µM,> 100 µM,0.299 µM,1.62 µM,0.218 µM,2.1 µM,0.429 µM,> 100 µM,2.06 µM,6.25 µM,0.307 µM,16.6 µM,> 100 µM
Cc1cc([C@H](C)Nc2nccc(N3C(=O)OC[C@@H]3[C@H](C)F)n2)ncc1-c1ccnc(C(F)(F)F)c1,42.4 µM,> 100 µM,29.8 µM,22.7 µM,> 100 µM,14.9 µM,> 100 µM,30.5 µM,> 100 µM,31.7 µM,> 100 µM,31.3 µM,> 100 µM,54 µM,> 100 µM,40.2 µM,> 100 µM,39.5 µM,> 100 µM,> 100 µM
NCCNc1nc2ccccc2c2c(=O)c3cc(F)cc(Cl)c3sc12,1.64 µM,3.14 µM,1.79 µM,0.694 µM,1.99 µM,1.39 µM,3.06 µM,9.54 µM,31.2 µM,1.64 µM,3.43 µM,1.42 µM,2.9 µM,1.57 µM,3.29 µM,1.82 µM,3.6 µM,1.22 µM,2.66 µM,3.72 µM
CC(=O)c1c(Nc2ccc(F)c(F)c2F)[nH]c2c(F)cc(F)cc2c1=O,0.368 µM,15.1 µM,0.382 µM,0.291 µM,5.57 µM,0.116 µM,0.466 µM,0.297 µM,1.87 µM,0.285 µM,16.6 µM,0.252 µM,1.33 µM,0.341 µM,43.1 µM,0.322 µM,1.35 µM,0.343 µM,20.1 µM,> 41.8 µM
COc1ccc(-c2cn(-c3cc(OC)c(OC)c(OC)c3)c(=O)n2-c2ccccc2)cc1,38.9 µM,> 100 µM,> 100 µM,> 100 µM,> 100 µM,11.6 µM,36.9 µM,> 100 µM,> 100 µM,66.7 µM,> 100 µM,> 100 µM,> 100 µM,> 100 µM,> 100 µM,> 100 µM,> 100 µM,> 100 µM,> 100 µM,> 100 µM
COc1ccc(-c2nn(-c3cccc(Cl)c3)cc2-c2cc(-c3cccs3)no2)cc1,3.39 µM,> 100 µM,3.56 µM,3.03 µM,12.7 µM,1.61 µM,8.13 µM,4.11 µM,30.3 µM,4.27 µM,18.4 µM,3.2 µM,36.9 µM,4.94 µM,47.1 µM,3.34 µM,10.9 µM,3.61 µM,15.4 µM,24.5 µM
COc1ccc(-c2nn(-c3cccc(Cl)c3)cc2/C=C2\C(=N)N(c3ccccc3)N=C2N)cc1,1.35 µM,29.9 µM,0.54 µM,1.59 µM,17.2 µM,22.4 µM,> 81.4 µM,6.58 µM,> 66.8 µM,0.916 µM,23 µM,0.601 µM,> 59 µM,4.52 µM,> 100 µM,1.66 µM,12.6 µM,3 µM,35.2 µM,> 82.2 µM
C=C[C@@]1(C)CC(=O)[C@]2(O)[C@@]3(C)[C@@H](O)CCC(C)(C)[C@@H]3[C@H](O)[C@@H](OC(C)=O)[C@@]2(C)O1,–,> 100 µM,–,–,> 100 µM,–,> 100 µM,–,> 100 µM,–,> 100 µM,–,> 100 µM,–,> 100 µM,–,> 100 µM,–,> 100 µM,> 100 µM
Nc1ccc2c(SCC(=O)Nc3ccccc3-c3ccccc3NC(=O)CSc3c4ccccc4nc4cc(N)ccc34)c3ccccc3nc2c1,–,56 µM,–,–,64.5 µM,–,79.9 µM,–,72.6 µM,–,31.8 µM,–,54.6 µM,–,93.3 µM,–,68 µM,–,66.5 µM,> 100 µM
CC[C@H](C)[C@H](NC(=O)N[C@@H](C)c1ccccc1)C(=O)N(C)[C@H](C[C@@H](OC(C)=O)c1nc(C(=O)N[C@@H](Cc2ccccc2)C[C@H](C)C(=O)OC)cs1)C(C)C,22.9 µM,82.2 µM,67.3 µM,21.8 µM,68.5 µM,11.1 µM,90.5 µM,44.1 µM,> 100 µM,13 µM,42.1 µM,27.5 µM,> 100 µM,29.7 µM,> 100 µM,18.3 µM,> 100 µM,33.1 µM,> 100 µM,> 100 µM
COc1cc(/C=C2\C(=O)Nc3ccc(Br)cc32)cc(OC)c1OC,27.2 µM,> 100 µM,10.3 µM,4.86 µM,> 100 µM,2.68 µM,24.8 µM,60.9 µM,> 100 µM,3.29 µM,> 50.9 µM,3.92 µM,> 100 µM,36.9 µM,> 100 µM,12.9 µM,55.2 µM,7.19 µM,30 µM,> 100 µM
CC(C)c1ccc2c(c1)c(SC(C)(C)C)c(CC(C)(C)C(=O)O)n2Cc1ccc(Cl)cc1,11.1 µM,27.7 µM,3.27 µM,9.1 µM,25.6 µM,7.49 µM,22.5 µM,12.6 µM,30.8 µM,6.07 µM,18.1 µM,8.18 µM,23.4 µM,8.79 µM,23.5 µM,7.5 µM,20.1 µM,6.8 µM,19.4 µM,14.1 µM
